Values joined by “and” are separate entries in the source; they are usually repeats but may differ in a detail not shown here. Equal entries are not always repeated.
Columns and labels:
CFTR G551D mutant = molecular target: T1, CFTR G551D mutant (Homo sapiens, UniProt P13569, G551D); test: YFP-halide influx assay for the CFTR-G551D mutation (HEK293 cells); assay type: cell-based; conditions: HEK293 cells expressing CFTR G551D and YFP reporter; forskolin 10.67 μM; read-out: EC50 measured by YFP-halide influx assay for the CFTR-G551D
T1 construct: expressed in transfected cells; host or cells: HEK293 (reverse transfection with plasmids)
Procedure, shortened: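 HEK293 cells reverse-transfected with CFTR G551D and halide-sensitive YFP, expressed 24 h at 37 °C. Iodide-induced fluorescence quench recorded for 7 s after I^− injection; response as 1−F/F0, EC50 from concentration plot.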

CFTR ΔF508 = molecular target: T2, CFTR ΔF508 (Homo sapiens, UniProt P13569, DEL508-508); test: TECC assay, primary bronchial epithelial cells from CF patients homozygous for CFTR ΔF508; assay type: cell-based; conditions: for ΔIsc / Current increase: TECC assay; for Current increase: difference between ΔIsc with compound and ΔIsc DMSO (baseline); for EC50: primary bronchial epithelial cells, CFTR ΔF508, several values in a cell = repeat determinations
T2 construct: host or cells: primary bronchial epithelial cells from CF patients homozygous for ΔF508, pre-treated with VX809
Procedure: 7.2.1. Primary Bronchial Epithelial Cells Protocol
The TECC (Tranepithelial Clamp Circuit, EP-design) assay measures the functionality of the cystic fibrosis Transmembrane Conductance regulator (CFTR) by measuring the short circuit current (ISC) generated over the basolateral and apical membrane of lung epithelial cells. In TECC the transepithelial potential PD and transepithelial resistance (Rt) are measured in an open circuit and transformed to ISC using Ohm's law. 24 wells can be measured simultaneously allowing a higher throughput compared to Ussing chambers.
For this purpose, bronchial epithelial cells isolated from CF patients homozygous for the CFTR ΔF508 mutation (hAEC-CF, Epithelix) are plated on type IV collagen-coated Transwell supports (Costar). Human airway epithelia are generated by provision of an air-liquid interface for 21 days to form well-differentiated polarized cultures that resemble in vivo pseudo-stratified ciliated epithelium (Fulcher et al., 2005). In the case of the homozygous ΔF508 CFTR samples, the differentiated cells are treated with 3 μM VX809 (2626 South Loop West, Suite 225, Houston, Tex. 77054 USA, Cat n#51565) to allow sufficient expression of properly folded CFTR protein on the membrane (48 hours basolateral treatment and 24 hours apical treatment), prior to electrophysiological recordings. […] G551D/ΔF508, differentiated cells are used as such for the recordings.
Information on the compounds can be retrieved on the homozygous ΔF508 CFTR samples looking at increased CFTR activity when compounds are added in an acute mode or in a chronic mode. On G551D/ΔF508 CFTR heterozygous samples compounds are added in an acute mode to the differentiated cells.
For the acute mode, for electrophysiological recording, the human airway epithelia are mounted in the TECC heating plate for electrophysiological measurement and kept at 37° C. The epithelia are bathed in a NaCl-Ringer solution (120 mM NaCl, 25 mM NaHCO3, 1.2 mM CaCl2, 1.2 mM MgCl2, 0.8 mM KH2PO4, 0.8 mM K2HPO4, pH 7.4, 5 mM glucose) on both the basolateral and apical sides. Apical amiloride is used to inhibit the endogenous ENaC currents while forkolin is applied on both apical and basolateral side to stimulate CFTR. After forskolin triggering, compounds are added on both sides to test their potential for increasing CFTR gating. Measurements are done during a 20 minute timeframe with recordings every 2 minutes. The increase in ISC is used as a measure for the increased CFTR activity, EC50 values can be generated by measuring impact of different concentrations of compound on ISC on primary cells, for this purpose each transwell is treated with a different compound concentration. Inh-172, an inhibitor specific for CFTR, is used to test the specificity of the tested compounds.
For the chronic mode, the differentiated cells are treated with 3 μM VX809 (2626 South Loop West, Suite 225, Houston, Tex. 77054 USA, Cat n#51565) and potentiator compounds at different concentrations (48 hours basolateral treatment and 24 hours apical treatment), prior to electrophysiological recordings. For electrophysiological recording, the human airway epithelia are mounted in the TECC heating plate for electrophysiological measurement and kept at 37° C. […]

T1 sequence (P13569 whole entry G551D): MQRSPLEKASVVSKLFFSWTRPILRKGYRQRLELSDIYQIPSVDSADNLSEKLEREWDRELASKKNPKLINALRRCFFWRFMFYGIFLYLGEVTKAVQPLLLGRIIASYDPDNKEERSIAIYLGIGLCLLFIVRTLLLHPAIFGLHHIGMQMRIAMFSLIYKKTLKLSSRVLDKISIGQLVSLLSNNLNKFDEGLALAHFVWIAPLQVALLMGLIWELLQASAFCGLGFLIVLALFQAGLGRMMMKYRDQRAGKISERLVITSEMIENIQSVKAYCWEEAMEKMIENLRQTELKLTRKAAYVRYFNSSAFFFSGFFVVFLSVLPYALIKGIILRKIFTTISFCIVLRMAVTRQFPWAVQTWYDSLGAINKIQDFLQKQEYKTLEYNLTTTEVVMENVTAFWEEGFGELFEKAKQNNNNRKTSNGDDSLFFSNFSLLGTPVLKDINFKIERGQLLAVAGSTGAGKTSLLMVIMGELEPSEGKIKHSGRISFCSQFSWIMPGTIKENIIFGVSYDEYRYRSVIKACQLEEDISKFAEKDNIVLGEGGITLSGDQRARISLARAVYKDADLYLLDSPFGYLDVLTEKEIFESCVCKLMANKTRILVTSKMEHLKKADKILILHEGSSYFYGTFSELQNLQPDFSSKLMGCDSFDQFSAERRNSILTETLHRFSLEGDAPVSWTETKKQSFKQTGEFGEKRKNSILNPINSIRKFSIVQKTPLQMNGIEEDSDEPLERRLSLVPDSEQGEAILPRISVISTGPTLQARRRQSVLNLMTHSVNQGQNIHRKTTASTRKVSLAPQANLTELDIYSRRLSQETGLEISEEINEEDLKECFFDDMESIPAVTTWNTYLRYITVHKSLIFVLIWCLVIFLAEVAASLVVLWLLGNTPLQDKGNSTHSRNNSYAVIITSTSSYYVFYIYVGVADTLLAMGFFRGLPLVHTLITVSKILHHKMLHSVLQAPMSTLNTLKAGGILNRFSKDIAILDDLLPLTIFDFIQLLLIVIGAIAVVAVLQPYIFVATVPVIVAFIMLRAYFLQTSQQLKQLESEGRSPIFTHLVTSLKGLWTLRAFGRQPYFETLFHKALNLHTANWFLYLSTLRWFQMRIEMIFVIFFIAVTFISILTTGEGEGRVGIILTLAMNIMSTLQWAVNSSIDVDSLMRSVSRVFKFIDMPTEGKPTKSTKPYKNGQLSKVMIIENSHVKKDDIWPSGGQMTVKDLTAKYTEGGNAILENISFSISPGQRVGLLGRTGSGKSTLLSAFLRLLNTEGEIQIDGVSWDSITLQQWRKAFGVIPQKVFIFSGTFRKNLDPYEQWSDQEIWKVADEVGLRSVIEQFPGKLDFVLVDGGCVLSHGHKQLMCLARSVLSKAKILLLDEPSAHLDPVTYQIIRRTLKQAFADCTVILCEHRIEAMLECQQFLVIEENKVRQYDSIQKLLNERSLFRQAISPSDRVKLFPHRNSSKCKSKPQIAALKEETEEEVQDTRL
T2 sequence (P13569 with tags, fused parts or gaps DEL508-508): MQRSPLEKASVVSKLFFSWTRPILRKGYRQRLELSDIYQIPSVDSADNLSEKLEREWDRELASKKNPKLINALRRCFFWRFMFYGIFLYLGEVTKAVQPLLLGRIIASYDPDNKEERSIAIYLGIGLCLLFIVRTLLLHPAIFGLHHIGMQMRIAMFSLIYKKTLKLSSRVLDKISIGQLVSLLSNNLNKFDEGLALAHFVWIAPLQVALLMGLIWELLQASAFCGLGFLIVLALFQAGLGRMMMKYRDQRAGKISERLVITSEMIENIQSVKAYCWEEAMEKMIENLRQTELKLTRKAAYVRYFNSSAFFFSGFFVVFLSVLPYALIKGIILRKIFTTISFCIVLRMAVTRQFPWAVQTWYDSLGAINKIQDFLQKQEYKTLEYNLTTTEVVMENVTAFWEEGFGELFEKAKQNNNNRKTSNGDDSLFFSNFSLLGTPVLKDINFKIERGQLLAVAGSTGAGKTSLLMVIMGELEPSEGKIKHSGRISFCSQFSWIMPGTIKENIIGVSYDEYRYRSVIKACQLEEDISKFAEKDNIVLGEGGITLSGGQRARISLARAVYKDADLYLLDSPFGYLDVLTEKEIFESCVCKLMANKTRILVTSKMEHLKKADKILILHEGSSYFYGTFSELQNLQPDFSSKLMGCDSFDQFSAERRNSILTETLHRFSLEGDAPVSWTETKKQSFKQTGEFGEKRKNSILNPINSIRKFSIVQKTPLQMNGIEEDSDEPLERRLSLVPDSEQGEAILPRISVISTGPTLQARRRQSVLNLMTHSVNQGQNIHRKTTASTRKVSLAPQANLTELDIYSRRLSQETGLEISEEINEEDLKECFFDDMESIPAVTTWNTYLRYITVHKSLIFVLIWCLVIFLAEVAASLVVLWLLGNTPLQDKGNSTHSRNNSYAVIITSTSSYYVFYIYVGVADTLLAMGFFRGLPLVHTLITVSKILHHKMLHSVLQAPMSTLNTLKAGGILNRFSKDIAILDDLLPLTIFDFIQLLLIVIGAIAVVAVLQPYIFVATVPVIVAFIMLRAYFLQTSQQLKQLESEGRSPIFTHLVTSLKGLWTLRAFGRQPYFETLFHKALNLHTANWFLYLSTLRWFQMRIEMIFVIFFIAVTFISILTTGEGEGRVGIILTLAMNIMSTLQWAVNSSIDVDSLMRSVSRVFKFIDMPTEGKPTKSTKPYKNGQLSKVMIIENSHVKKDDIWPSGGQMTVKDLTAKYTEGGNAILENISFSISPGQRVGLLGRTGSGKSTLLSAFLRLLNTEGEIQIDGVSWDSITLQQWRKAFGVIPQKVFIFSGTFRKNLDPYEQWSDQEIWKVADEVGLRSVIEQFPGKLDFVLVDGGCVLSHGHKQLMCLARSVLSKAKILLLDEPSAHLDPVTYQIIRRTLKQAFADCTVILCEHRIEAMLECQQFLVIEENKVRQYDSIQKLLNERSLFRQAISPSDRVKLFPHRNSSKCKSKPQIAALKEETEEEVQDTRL

Row | SMILES | EC50 (CFTR G551D mutant) | ΔIsc (CFTR ΔF508; compound at 50 nM (Table XV)) | ΔIsc (CFTR ΔF508; compound at 50 nM (Table XVI)) | Current increase (CFTR ΔF508; compound at 50 nM) | ΔIsc (CFTR ΔF508; compound at 100 nM (Table XVI)) | ΔIsc (CFTR ΔF508; compound at 200 nM (Table XVI)) | ΔIsc (CFTR ΔF508; compound at 3 μM) | Current increase (CFTR ΔF508; compound at 3 μM) | activity on the CFTR protein in TECC assay (ΔISC vs DMSO baseline) (CFTR ΔF508; at 3 μM, or 50 nM, or 50/100/200 nM) | EC50 (CFTR ΔF508)
1 | CC1(C)Cc2c(sc(NC(=O)c3ccn[nH]3)c2C(N)=O)C(C)(C)O1 [Compound 2, N-(3-carbamoyl-5,5,7,7-tetramethyl-5,7-dihydro-4H-thieno[2,3-c]pyran-2-yl)-1H-pyrazole-5-carboxamide] | 0.5 µM | 4.5996 μA/cm^2 | 4.5996 μA/cm^2 | 4.9244 μA/cm^2 | 4.9327 μA/cm^2 | 5.0457 μA/cm^2 | 10.9207 μA/cm^2 | 11.6634 μA/cm^2 | shows an activity | 0.037 µM
2 | CC1(C)Cc2c(sc(NC(=O)C3(O)CC3)c2C(N)=O)C(C)(C)O1 [Compound 4, 2-(1-hydroxycyclopropanecarboxamido)-5,5,7,7-tetramethyl-5,7-dihydro-4H-thieno[2,3-c]pyran-3-carboxamide] | 1.34 µM |  |  |  |  |  | 4.6728 μA/cm^2 | 5.1939 μA/cm^2 |  | 
3 | CC1(C)Cc2c(sc(NC(=O)C3(CO)CC3)c2C(N)=O)C(C)(C)O1 [Compound 9, 2-(1-(hydroxymethyl)cyclopropanecarboxamido)-5,5,7,7-tetramethyl-5,7-dihydro-4H-thieno[2,3-c]pyran-3-carboxamide] | 1 µM |  |  |  |  |  |  |  |  | 0.237 µM and 0.065 µM
4 | CC1(C)Cc2c(sc(NC(=O)C(C)(C)CO)c2C(N)=O)C(C)(C)O1 [Compound 10, 2-(3-hydroxy-2,2-dimethylpropanamido)-5,5,7,7-tetramethyl-5,7-dihydro-4H-thieno[2,3-c]pyran-3-carboxamide] | 2.65 µM |  |  |  |  |  | 3.9356 μA/cm^2 | 4.4567 μA/cm^2 |  | 

Reference: US9351955B2, “Compounds and pharmaceutical compositions thereof for the treatment of cystic fibrosis” (Galapagos NV, priority 2013, dated 2016)
